Experimental data taken from the supplement of paper PMC10307832.

Key:
Experiment in all cases: relative viability (nuclei count vs DMSO), 5 days (fraction); higher = more cells survive
Tipifarnib + Linsitinib = compound: Cn1cncc1[C@@](N)(c1ccc(Cl)cc1)c1ccc2c(c1)c(-c1cccc(Cl)c1)cc(=O)n2C [Tipifarnib] + C[C@]1(O)C[C@@H](c2nc(-c3ccc4ccc(-c5ccccc5)nc4c3)c3c(N)nccn32)C1 [Linsitinib] (partner 1 µM)
Outline: (§1)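 Relative viability equals treated-well nuclei counts divided by vehicle-well nuclei counts. Counts came from 4× images of lung cancer cell lines grown in 1536-well plates for 5 days after pin-tool dosing on the day after seeding. Dosing used one drug alone or a fixed anchor-drug dose plus five library-drug doses (not always all listed) in √10 steps, and values are medians of duplicate plates.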

Tipifarnib + Decitabine = compound: Cn1cncc1[C@@](N)(c1ccc(Cl)cc1)c1ccc2c(c1)c(-c1cccc(Cl)c1)cc(=O)n2C [Tipifarnib] + Nc1ncn([C@H]2C[C@H](O)[C@@H](CO)O2)c(=O)n1 [Decitabine] (partner 2 µM)
Outline: as §1

Tipifarnib + Pictilisib = compound: Cn1cncc1[C@@](N)(c1ccc(Cl)cc1)c1ccc2c(c1)c(-c1cccc(Cl)c1)cc(=O)n2C [Tipifarnib] + CS(=O)(=O)N1CCN(Cc2cc3nc(-c4cccc5[nH]ncc45)nc(N4CCOCC4)c3s2)CC1 [Pictilisib] (partner 1 µM)
Outline: as §1

Tipifarnib + Alpelisib = compound: Cn1cncc1[C@@](N)(c1ccc(Cl)cc1)c1ccc2c(c1)c(-c1cccc(Cl)c1)cc(=O)n2C [Tipifarnib] + Cc1nc(NC(=O)N2CCC[C@H]2C(N)=O)sc1-c1ccnc(C(C)(C)C(F)(F)F)c1 [Alpelisib] (partner 2 µM)
Outline: as §1

Row | Cell Line | relative viability (Tipifarnib + Linsitinib; first compound 0.01 µM) | relative viability (Tipifarnib + Linsitinib; first compound 0.03162 µM) | relative viability (Tipifarnib + Linsitinib; first compound 0.1 µM) | relative viability (Tipifarnib + Linsitinib; first compound 0.3162 µM) | relative viability (Tipifarnib + Linsitinib; first compound 1 µM) | relative viability (Tipifarnib + Decitabine; first compound 0.01 µM) | relative viability (Tipifarnib + Decitabine; first compound 0.03162 µM) | relative viability (Tipifarnib + Decitabine; first compound 0.1 µM) | relative viability (Tipifarnib + Decitabine; first compound 0.3162 µM) | relative viability (Tipifarnib + Decitabine; first compound 1 µM) | relative viability (Tipifarnib + Pictilisib; first compound 0.01 µM) | relative viability (Tipifarnib + Pictilisib; first compound 0.03162 µM) | relative viability (Tipifarnib + Pictilisib; first compound 0.1 µM) | relative viability (Tipifarnib + Pictilisib; first compound 0.3162 µM) | relative viability (Tipifarnib + Pictilisib; first compound 1 µM) | relative viability (Tipifarnib + Alpelisib; first compound 0.01 µM) | relative viability (Tipifarnib + Alpelisib; first compound 0.03162 µM) | relative viability (Tipifarnib + Alpelisib; first compound 0.1 µM) | relative viability (Tipifarnib + Alpelisib; first compound 0.3162 µM) | relative viability (Tipifarnib + Alpelisib; first compound 1 µM)
1 | NCI-H1944 | 1.3 | 1 | 1.09 | 0.644 | 0.737 | 0.421 | 0.452 | 0.413 | 0.346 | 0.404 | 0.38 | 0.313 | 0.348 | 0.295 | 0.279 | 0.805 | 0.742 | 0.648 | 0.54 | 0.572
2 | HARA | 1.08 | 0.925 | 0.956 | 0.94 | 0.87 | 0.758 | 0.593 | 0.515 | 0.625 | 0.435 | 0.403 | 0.373 | 0.313 | 0.362 | 0.148 | 0.924 | 0.792 | 0.781 | 0.662 | 0.653
3 | NCI-H2126 | 0.758 | 0.617 | 0.692 | 0.692 | 0.682 | 0.576 | 0.582 | 0.578 | 0.519 | 0.53 | 0.491 | 0.492 | 0.518 | 0.478 | 0.391 | 0.759 | 0.729 | 0.799 | 0.733 | 0.706
4 | LXF-289 | 0.989 | 0.951 | 0.865 | 0.876 | 0.897 | 0.415 | 0.391 | 0.429 | 0.348 | 0.377 | 0.86 | 0.793 | 0.735 | 0.699 | 0.464 | 1.05 | 1.05 | 0.988 | 0.889 | 0.983
5 | NCI-H460 | 0.841 | 0.639 | 0.173 | 0.146 | 0.0526 | 0.479 | 0.33 | 0.283 | 0.15 | 0.0821 | 0.42 | 0.396 | 0.379 | 0.275 | 0.126 | 0.572 | 0.527 | 0.198 | 0.115 | 0.0453
6 | NCI-H1395 | 1.43 | 1.14 | 0.888 | 0.869 | 0.783 | 0.7 | 0.674 | 0.59 | 0.626 | 0.654 | 0.578 | 0.547 | 0.538 | 0.47 | 0.521 | 0.92 | 1.03 | 0.894 | 0.693 | 0.6
7 | NCI-H2009 | 1.19 | 1.09 | 0.903 | 0.702 | 0.667 | 0.382 | 0.378 | 0.362 | 0.357 | 0.323 | 0.981 | 0.579 | 0.524 | 0.466 | 0.319 | 1.18 | 1.06 | 0.899 | 0.689 | 0.679
